Patent US20100331349A1, “Use of gamma-aminobutyric acid to mask or reduce an unpleasant flavour impression and preparations containing gamma-aminobutyric” (Symrise GmbH & Co. KG, priority 2004, published 2010)

How the values were obtained:
[1] = Masking or reduction of unpleasant (bitter) flavour impression in preparations, rated by a group of experts; settings: against caffeine, quinine, naringin, potassium chloride, magnesium sulfate, beta-lactam antibiotics
Description: (§1) To quantify the reduction in the bitter impression with the use of γ-aminobutyric acid, the bitterness of a 500 ppm caffeine solution (comparative solution; not according to the invention) and of four samples according to the invention containing 500 ppm of caffeine and differing amounts of γ-aminobutyric acid was determined by a group of experts (rating 0 [not bitter] to 10 [extremely bitter]).
as §1, with “impression,” for “impression with the use of γ-aminobutyric acid,”, “12.5” for “500”, “quinine hydrochloride” for “caffeine”, “eight” for “four”, “5” for “10”
To quantify the reduction in the bitter impression, the bitterness of (a) a 500 ppm caffeine solution (basic solution), (b) a sample containing 500 ppm of caffeine, 100 ppm of homoeriodictyol sodium salt and 20 ppm of γ-aminobutyric acid, and (c) a sample containing 500 ppm of caffeine and 20 ppm of γ-aminobutyric acid was determined by a group of experts (rating 1 [not bitter] to 10 [extremely bitter]). […]

[2] = WO 00/21390; cited from earlier work

| Compound | concentration in preparations at which the unpleasant, in particular bitter, flavour impression is reduced or completely suppressed [1] | concentration needed as bitterness-masking agent [2] |
| --- | --- | --- |
| NCCCC(=O)O [γ-aminobutyric acid] | less than 0.1 wt. % |  |
| polyglutamic acid |  | around 1 wt. % |
